Data reported in ChEMBL document CHEMBL5215012, “Daphnepedunins A-F, Anti-HIV Macrocyclic Daphnane Orthoester Diterpenoids from Daphne pedunculata” (J Nat Prod, 2022).

What was measured:
[1] = tested on: Human immunodeficiency virus 1; assay: Anti-HIV activity against HIV-1 NL4-3 Nanoluc-sec virus infected in human MT4 cells assessed as viral growth inhibition by measuring luciferase activity measured after 3 days post-infection by Nano-Glo luciferase assay; type: functional, organism-based; conditions: Human immunodeficiency virus 1, NL4-3, MT4, 72 h
MT4 = assay: Cytotoxicity against human MT4 cells assessed as reduction in cell viability by celltiter-glo luminescent cell viability assay; type: toxicity, cell-based

| Structure (SMILES) | IC50 [1] [nM] | CC50 (MT4) [nM] |
| --- | --- | --- |
| C=C(C)[C@]12C[C@@H](COC(=O)c3ccccc3)[C@@]34OC5(CCCCC[C@@H](O)C[C@@H](C)[C@H]6[C@H](C)C(=O)[C@@](O)([C@H](O)[C@@]7(CO)O[C@H]7[C@H]3[C@H]1O5)[C@@H]64)O2 | 69.2 | > 6500 |
| C=C(C)[C@]12C[C@@H](C)[C@]34OC5(CCCCCCC[C@@H](C)[C@@H]6[C@@H]3[C@@](O)(C(=O)[C@@]6(C)O)[C@H](O)[C@@]3(CO)O[C@H]3[C@H]4[C@H]1O5)O2 | 91.9 | > 6500 |
| C=C(C)[C@]12C[C@@H](COC(=O)c3ccccc3)[C@@]34OC5(O[C@@H]1[C@@H]3[C@@H]1O[C@]1(CO)[C@@H](O)[C@@]1(O)[C@H]4[C@H]([C@H](C)[C@@H]1OC(=O)c1ccccc1)[C@H](C)CCCCCC[C@H]5O)O2 | 0.15 | > 6500 |
| C=C(C)[C@]12C[C@@H](COC(=O)c3ccccc3)[C@]34OC5(CCCCC[C@@H](OC(=O)c6ccccc6)C[C@@H](C)[C@@H]6[C@@H]3[C@]3(O[C@]6(C)OC3=O)[C@H](O)[C@@]3(CO)O[C@H]3[C@H]4[C@H]1O5)O2 | 423 | 5300 |
| C=C(C)[C@]12C[C@@H](C)[C@@]34OC5(CCCCCCC[C@@H](C)[C@H]6[C@H](C)C(=O)[C@@](O)([C@H](O)[C@@]7(CO)O[C@H]7[C@H]3[C@H]1O5)[C@@H]64)O2 | 38.5 | > 6500 |
| C=C(C)[C@]12C[C@@H](C)[C@]34OC5(CCCCCCC[C@H](C)[C@@H]6[C@@H]3[C@@](O)(C(=O)[C@@]6(C)O)[C@H](O)[C@@]3(CO)O[C@H]3[C@H]4[C@H]1O5)O2 | 107 | 24200 |
| C=C(C)[C@]12C[C@@H](C)[C@]34OC5(CCCCCCC[C@@H](C)[C@@H]6[C@@H]3[C@]3(O[C@]6(C)OC3=O)[C@H](O)[C@@]3(CO)O[C@H]3[C@H]4[C@H]1O5)O2 | 229 | – |
| C=C(C)[C@]12C[C@@H](C)[C@]34OC5(CCCCCCC[C@H](C)[C@@H]6[C@@H]3[C@]3(O[C@]6(C)OC3=O)[C@H](O)[C@@]3(CO)O[C@H]3[C@H]4[C@H]1O5)O2 | 187 | > 38500 |
| C=C(C)[C@]12C[C@@H](COC(=O)c3ccccc3)[C@@]34OC5(CCCCCCC[C@@H](C)[C@H]6[C@H](C)C(=O)[C@@](O)([C@H](O)[C@@]7(CO)O[C@H]7[C@H]3[C@H]1O5)[C@@H]64)O2 | 71 | > 38500 |
| C=C(C)[C@]12C[C@@H](COC(=O)c3ccccc3)[C@]34OC5(CCCCCCC[C@H](C)[C@@H]6[C@@H]3[C@]3(O[C@]6(C)OC3=O)[C@H](O)[C@@]3(CO)O[C@H]3[C@H]4[C@H]1O5)O2 | 930 | 18800 |
| C=C(C)[C@]12C[C@@H](C)[C@@]34OC5(CCCCCCCC[C@H]6[C@H](C)C(=O)[C@@](O)([C@H](O)[C@@]7(CO)O[C@H]7[C@H]3[C@H]1O5)[C@@H]64)O2 | 36.3 | > 6500 |
| C=C(C)[C@]12C[C@@H](COC(=O)c3ccccc3)[C@]34OC5(CCCCCCC[C@@H](C)[C@@H]6[C@@H]3[C@]3(O[C@]6(C)OC3=O)[C@H](O)[C@@]3(CO)O[C@H]3[C@H]4[C@H]1O5)O2 | 994 | 21700 |
| C=C(C)[C@]12C[C@@H](C)[C@@]34O[C@]5(CCCCCCC[C@H](C)[C@H]6[C@H](C)C(=O)[C@@](O)([C@H](O)[C@@]7(CO)O[C@H]7[C@H]3[C@H]1O5)[C@@H]64)O2 | 81.7 | – |
